# Assay results taken from patent US20220142958A1, “MEDICINAL COMPOSITION HAVING EXCELLENT STABILITY” (EA Pharma Co., Ltd., priority 2019, published 2022).
# Experiments:
# [1] = Example 4B: residual ratio at 50, 60, 70° C. and Arrhenius estimation at 25° C.; type: physicochemical; conditions: for Kobs: estimation at 25° C. (Arrhenius plot); for Residual ratio (%) estimation: estimation at 25° C.
# Experimental: According to Table 13, Compound A1 was dissolved at 2 concentrations in each of the buffer solutions having a pH at each of both ends of Example 4A. Each of these solutions was dispensed into a glass vial and stored at each of 50° C., 60° C., and 70° C. After the storage, a residual ratio was calculated according to a test method described below.
# Test method: In the solution after the storage, the residual ratio was analyzed according to a normal method using a liquid chromatography apparatus Prominence (manufactured by Shimadzu Corporation) and an ultraviolet absorptiometer (measurement wavelength: 254 nm, Prominence (manufactured by Shimadzu Corporation)). At this time, SUMIPAX ODS (3 mm×150 mm, […], manufactured by SCAS) was used as a column.
# The calculation for obtaining the residual ratio (%) of Compound A1 during each storage period is as follows.
# Residual ratio (%) of Compound A1 during each storage period=peak area of Compound A1 in sample solution/peak area of Compound A1 in standard solution×100
# Here, “Compound A1 in standard solution” refers to a solution obtained by dissolving Compound A1 in each of the buffer solutions shown in Table 13 so that a concentration was 0.1 mg/mL, and then storing the solution at 5° C. It was clear from the results of Example 1 that the solution of Compound A1 was stable when being stored at 5° C., and thus, the solution was used as the standard solution.
# The reaction rate constant at each of the storing temperatures was calculated using the obtained residual ratio. The Arrhenius plot was performed to calculate the reaction rate constant (h^−1) at an arbitrary temperature. As an example, the residual ratio estimation at 25° C. is shown in Table 15 and described in FIG. 1.
# [2] = tested on: SHPT patients on maintenance hemodialysis; assay: Phase I/II clinical trial, repeated administration; type: in vivo, human; conditions: for percentage decrease in the serum iPTH concentration: Day 22 (three days after the ninth administration)
# Experimental: Targeting SHPT patients on maintenance hemodialysis, pharmacokinetics, pharmacodynamics and safety upon single or repeated intravenous administration of Compound A1 were examined by conducting a double-blind test using a placebo as a control.
# Repeated administration: Based on the clinically effective dose calculated in Reference Example 5, the doses were given in 3 steps, namely, 0.05 mg, 0.1 mg, and 0.2 mg. The trial drug was (intravenously) infused from the venous side of the dialysis circuit before the end of dialysis three times a week for 22 days (total of 9 times) starting from the first day of administration of the trial drug. Here, the trial drug was administered by diluting a required dose taken from the Compound A1 vial formulation prepared as follows with sterilized water for injection, and filling a syringe with the resultant in accordance with the dose to be administered.
# Each item was evaluated according to the predetermined evaluation schedule.
# A vial formulation encapsulating 1 mg of Compound A1 in terms of a dehydrate, and sodium chloride, disodium hydrogen phosphate dodecahydrate, and sodium dihydrogen phosphate dihydrate as additives in 10 ml of sterilized water for injection
# serum iPTH = assay: Estimation of EC50, PK and clinically effective dose in patients with renal failure; set-up: species or system human
# Text: EC50 value in patient with renal failure was estimated based on the calculated EC50 value in healthy adults and the results from the same analysis in normal rats and adenine-treated rat models (pathological rat models). […] Since the difference in the EC50 value between rats in normal state and pathological state is presumed to be caused by the changes in PK that are considered to greatly vary between normal state and pathological state, similar tendency is expected in human as well.
# The result from PK fitting, and the contribution rate of renal elimination of the drug (3.2%) calculated using PK-sim (registered trademark) were used to simulate PK prediction in the patients with renal failure. […] As a result, administration of a dose of 0.06 mg/man was estimated to maintain a concentration higher than 1.4 ng/mL for 72 hours (FIG. 2-8).
compound,measurement,setting,value
"Cc1c(Cl)cc(S(=O)(=O)[O-])cc1NC(=O)NC[C@H](N)C(=O)O.[Na+] [Compound A1, sodium 3-{[(2S)-2-amino-2-carboxyethyl]carbamoylamino}-5-chloro-4-methylbenzenesulfonate]",Kobs,"[1]; pH 1.1, 0.1 mg/mL",3.01e-06 h⁻¹
same,Kobs,"[1]; pH 1.1, 10 mg/mL",5.55e-06 h⁻¹
same,Kobs,"[1]; pH 7.0, 0.1 mg/mL",3.1e-06 h⁻¹
same,Kobs,"[1]; pH 7.0, 10 mg/mL",5.73e-06 h⁻¹
same,Residual ratio (%) estimation,"[1]; pH 1.1, 0.1 mg/mL, 3M",99.4%
same,Residual ratio (%) estimation,"[1]; pH 1.1, 0.1 mg/mL, 6M",98.7%
same,Residual ratio (%) estimation,"[1]; pH 1.1, 0.1 mg/mL, 12M",97.4%
same,Residual ratio (%) estimation,"[1]; pH 1.1, 10 mg/mL, 3M",98.8%
same,Residual ratio (%) estimation,"[1]; pH 1.1, 10 mg/mL, 6M",97.6%
same,Residual ratio (%) estimation,"[1]; pH 1.1, 10 mg/mL, 12M",95.3%
same,Residual ratio (%) estimation,"[1]; pH 7.0, 0.1 mg/mL, 3M",99.3%
same,Residual ratio (%) estimation,"[1]; pH 7.0, 0.1 mg/mL, 6M",98.7%
same,Residual ratio (%) estimation,"[1]; pH 7.0, 0.1 mg/mL, 12M",97.4%
same,Residual ratio (%) estimation,"[1]; pH 7.0, 10 mg/mL, 3M",98.8%
same,Residual ratio (%) estimation,"[1]; pH 7.0, 10 mg/mL, 6M",97.6%
same,Residual ratio (%) estimation,"[1]; pH 7.0, 10 mg/mL, 12M",95.2%
same,storage stability,"[1]; formulation with pH of 1.1 and 7.0, 25° C., over 12 months (estimation)",excellent storage stability
same,Residual ratio (%),"[1]; pH 1.1, 0.1 mg/mL, 50° C., 23 hours",98.9%
same,Residual ratio (%),"[1]; pH 1.1, 0.1 mg/mL, 50° C., 141 hours",96.9%
same,Residual ratio (%),"[1]; pH 1.1, 0.1 mg/mL, 50° C., 570 hours",92.3%
same,Residual ratio (%),"[1]; pH 1.1, 0.1 mg/mL, 60° C., 23 hours",97.8%
same,Residual ratio (%),"[1]; pH 1.1, 0.1 mg/mL, 60° C., 141 hours",92.0%
same,Residual ratio (%),"[1]; pH 1.1, 0.1 mg/mL, 60° C., 570 hours",76.7%
same,Residual ratio (%),"[1]; pH 1.1, 0.1 mg/mL, 70° C., 23 hours",94.5%
same,Residual ratio (%),"[1]; pH 1.1, 0.1 mg/mL, 70° C., 141 hours",76.8%
same,Residual ratio (%),"[1]; pH 1.1, 0.1 mg/mL, 70° C., 570 hours",35.5%
same,Residual ratio (%),"[1]; pH 1.1, 10 mg/mL, 50° C., 23 hours",96.2%
same,Residual ratio (%),"[1]; pH 1.1, 10 mg/mL, 50° C., 141 hours",96.4%
same,Residual ratio (%),"[1]; pH 1.1, 10 mg/mL, 50° C., 570 hours",89.5%
same,Residual ratio (%),"[1]; pH 1.1, 10 mg/mL, 60° C., 23 hours",96.4%
same,Residual ratio (%),"[1]; pH 1.1, 10 mg/mL, 60° C., 141 hours",95.6%
same,Residual ratio (%),"[1]; pH 1.1, 10 mg/mL, 60° C., 570 hours",73.4%
same,Residual ratio (%),"[1]; pH 1.1, 10 mg/mL, 70° C., 23 hours",92.5%
same,Residual ratio (%),"[1]; pH 1.1, 10 mg/mL, 70° C., 141 hours",84.2%
same,Residual ratio (%),"[1]; pH 1.1, 10 mg/mL, 70° C., 570 hours",36.5%
same,Residual ratio (%),"[1]; pH 7.0, 0.1 mg/mL, 50° C., 23 hours",99.6%
same,Residual ratio (%),"[1]; pH 7.0, 0.1 mg/mL, 50° C., 141 hours",97.7%
same,Residual ratio (%),"[1]; pH 7.0, 0.1 mg/mL, 50° C., 570 hours",90.9%
same,Residual ratio (%),"[1]; pH 7.0, 0.1 mg/mL, 60° C., 23 hours",98.2%
same,Residual ratio (%),"[1]; pH 7.0, 0.1 mg/mL, 60° C., 141 hours",89.2%
same,Residual ratio (%),"[1]; pH 7.0, 0.1 mg/mL, 60° C., 570 hours",63.9%
same,Residual ratio (%),"[1]; pH 7.0, 0.1 mg/mL, 70° C., 23 hours",93.8%
same,Residual ratio (%),"[1]; pH 7.0, 0.1 mg/mL, 70° C., 141 hours",68.0%
same,Residual ratio (%),"[1]; pH 7.0, 0.1 mg/mL, 70° C., 570 hours",21.1%
same,Residual ratio (%),"[1]; pH 7.0, 10 mg/mL, 50° C., 23 hours",100.0%
same,Residual ratio (%),"[1]; pH 7.0, 10 mg/mL, 50° C., 141 hours",98.0%
same,Residual ratio (%),"[1]; pH 7.0, 10 mg/mL, 50° C., 570 hours",89.0%
same,Residual ratio (%),"[1]; pH 7.0, 10 mg/mL, 60° C., 23 hours",97.2%
same,Residual ratio (%),"[1]; pH 7.0, 10 mg/mL, 60° C., 141 hours",86.3%
same,Residual ratio (%),"[1]; pH 7.0, 10 mg/mL, 60° C., 570 hours",61.0%
same,Residual ratio (%),"[1]; pH 7.0, 10 mg/mL, 70° C., 23 hours",91.7%
same,Residual ratio (%),"[1]; pH 7.0, 10 mg/mL, 70° C., 141 hours",64.4%
same,Residual ratio (%),"[1]; pH 7.0, 10 mg/mL, 70° C., 570 hours",22.2%
same,percentage decrease in the serum iPTH concentration,[2]; 0.05 mg dose group,8%
same,percentage decrease in the serum iPTH concentration,[2]; 0.1 mg dose group,25%
same,percentage decrease in the serum iPTH concentration,[2]; 0.2 mg dose group,36%
same,accumulating property,[2]; repeated administration,no accumulating property
same,elimination by dialysis,[2]; repeated administration,rapidly eliminated by dialysis
same,trough concentration before the dialysis following the longest interval,[2]; repeated administration,generally constant
same,decrease in the corrected Ca,"[2]; repeated administration, 0.05 mg dose group (mild)",observed
same,decrease in the corrected Ca,"[2]; repeated administration, 0.1 mg dose group",not observed
same,decrease in the corrected Ca,"[2]; repeated administration, 0.2 mg dose group (mild)",observed
same,form present in the plasma,"[2]; repeated administration, three times a week for 22 days",mainly as an unchanged substance
same,dose estimated to maintain a concentration higher than 1.4 ng/mL for 72 hours,serum iPTH; PK simulation,0.06 mg/man
same,EC50 (estimated),serum iPTH; scaling factor applied to human,> 1.4 ng/mL
